Patent US10676508B2, “DEPDC1-derived peptide and vaccine containing same” (OncoTherapy Science, Inc., priority 2015, dated 2020)

system: peptide-pulsed C1R-A11; test: In vitro CTL induction, IFN-gamma ELISPOT assay (HLA-A*1101); assay type: cell-based, human; conditions: CTLs from HLA-A*1101-positive donors, DCs pulsed with 20 micro-g/ml peptide, day 21, versus unpulsed C1R-A11
Description: Monocyte-derived dendritic cells (DCs) were used as the antigen-presenting cell to induce a cytotoxic T lymphocyte (CTL) response against peptides presented on human leukocyte antigens (HLAs). As described in the other sections, DCs were generated in vitro (Nakahara S et al., Cancer Res 2003, 63(14): 4112-8). Specifically, peripheral-blood mononuclear cells isolated from healthy volunteers (HLA-A*1101-positive) with the Ficoll-Paque plus solution (Pharmacia) were separated by attaching to plastic tissue culture dishes (Becton Dickinson) and concentrated as a monocyte fraction. The monocyte-concentrated population was cultured in the presence of 1000 IU/ml granulocyte macrophage colony-stimulating factor (R&D System) and 1000 IU/ml interleukin (IL)-4 (R&D System) in an AIM-V medium (Invitrogen) containing 2% heat-inactivated autologous serum (AS). After seven days of culturing, the cytokine-induced DCs were pulsed with 20 micro-g/ml each of the synthesized peptides in an AIM-V medium at 37 degrees C. for three hours in the presence of 3 micro-g/ml beta 2-microglobulin.
Next, these peptide-pulsed DCs were inactivated by X-ray irradiation (20 Gy), and mixed in a 1:20 ratio with autologous CD8^+ T cells obtained by positive selection using the CD8 Positive Isolation Kit (Dynal). These culture products were seeded in a 48-well plate (Corning). […]

Sequence | peptide-specific CTL activity (IFN-gamma production, ELISPOT)
ATINKRLCK (a peptide derived from DEPDC1) [SEQ ID NO: 2] | specific IFN-gamma production was not observed

system: peptide-pulsed C1R-A01 cells; test: In vitro CTL induction, IFN-gamma ELISPOT assay (HLA-A*0101); assay type: cell-based, human; conditions: CTLs from HLA-A*0101-positive donors, DCs pulsed with 20 micro-g/ml peptide, day 21, versus unpulsed C1R-A01
Description: Monocyte-derived dendritic cells (DCs) were used as the antigen-presenting cell to induce a cytotoxic T lymphocyte (CTL) response against peptides presented on human leukocyte antigens (HLAs). As described in the other sections, DCs were generated in vitro (Nakahara S et al., Cancer Res 2003, 63(14): 4112-8). Specifically, peripheral-blood mononuclear cells isolated from healthy volunteers (HLA-A*0101-positive) with the Ficoll-Paque plus solution (Pharmacia) were separated by attaching to plastic tissue culture dishes (Becton Dickinson) and concentrated as a monocyte fraction. The monocyte-concentrated population was cultured in the presence of 1000 IU/ml granulocyte macrophage colony-stimulating factor (R&D System) and 1000 IU/ml interleukin (IL)-4 (R&D System) in an AIM-V medium (Invitrogen) containing 2% heat-inactivated autologous serum (AS). After seven days of culturing, the cytokine-induced DCs were pulsed with 20 micro-g/ml each of the synthesized peptides in an AIM-V medium at 37 degrees C. for three hours in the presence of 3 micro-g/ml beta 2-microglobulin. Next, these peptide-pulsed DCs were inactivated by X-ray irradiation (20 Gy), and mixed in a 1:20 ratio with autologous CD8^+ T cells obtained by positive selection using the CD8 Positive Isolation Kit (Dynal). These culture products were seeded in a 48-well plate (Corning). Each well was made to contain 1.5×10^4 peptide-pulsed DCs, 3×10^5 CD8^+ T cells and 10 ng/ml IL-7 (R&D System) in 0.5 ml of the AIM-V/2% AS medium. Three days later, these culture products were added with a final concentration of 20 IU/ml IL-2 (CHIRON). On day 7 and day 14, T cells were further stimulated with peptide-pulsed autologous DCs. The DCs were prepared every time by the same method as above. On day 21, after the third peptide stimulation, CTL activities were examined against the peptide-pulsed C1R-A01 cells (Tanaka H et al., Br J Cancer 2001, 84(1): 94-9; Umano Y et al., Br J Cancer 2001, 84(8): 1052-7; Uchida N et al., Clin Cancer Res 2004, 10(24): 8577-86; Suda T et al., Cancer Sci 2006, 97(5): 411-9; Watanabe T et al., Cancer Sci 2005, 96(8): 498-506).
To examine specific CTL activity, an IFN-gamma ELISPOT assay and an IFN-gamma ELISA were performed. Specifically, peptide-pulsed C1R-A01 cells (1×10^4 cells/well) were prepared as the stimulator cell. The induced CTLs, i.e., CTL lines and CTL clones, were used as the responder cell. The IFN-gamma ELISPOT assay and IFN-gamma ELISA were performed according to the manufacturer's manual.

Sequence | peptide-specific CTL activity (IFN-gamma production, ELISPOT)
RSSTRRNSY (a peptide derived from DEPDC1) [SEQ ID NO: 21] | potent IFN-gamma production
FQKEYPLIY (a peptide derived from DEPDC1) [SEQ ID NO: 87] | potent IFN-gamma production
HQEILQVPSY (a peptide derived from DEPDC1) [SEQ ID NO: 103] | potent IFN-gamma production
QEDVEEVWRY (a peptide derived from DEPDC1) [SEQ ID NO: 106] | potent IFN-gamma production
SNDMNNPTY (a peptide derived from DEPDC1) [SEQ ID NO: 86] | potent IFN-gamma production
NVDDNNQLF (a peptide derived from DEPDC1) [SEQ ID NO: 85] | potent IFN-gamma production
QTAVEKHLDY (a peptide derived from DEPDC1) [SEQ ID NO: 90] | potent IFN-gamma production
STECLLLSLL (a peptide derived from DEPDC1) [SEQ ID NO: 104] | potent IFN-gamma production
HSEENIQKPF (a peptide derived from DEPDC1) [SEQ ID NO: 101] | potent IFN-gamma production
TTESEAALF (a peptide derived from DEPDC1) [SEQ ID NO: 83] | potent IFN-gamma production
FLESKPKQEF (a peptide derived from DEPDC1) [SEQ ID NO: 102] | potent IFN-gamma production
RSNDMNNPTY (a peptide derived from DEPDC1) [SEQ ID NO: 58] | potent IFN-gamma production
LPEPLLTFEY (a peptide derived from DEPDC1) [SEQ ID NO: 107] | potent IFN-gamma production
KSDDLPHWV (a peptide derived from DEPDC1) [SEQ ID NO: 81] | potent IFN-gamma production
VSDRSSGIH (a peptide derived from DEPDC1) [SEQ ID NO: 89] | potent IFN-gamma production
TAGEAVDWLY (a peptide derived from DEPDC1) [SEQ ID NO: 92] | potent IFN-gamma production
PTTESEAALF (a peptide derived from DEPDC1) [SEQ ID NO: 94] | specific IFN-gamma production was not observed
ESQGVPPGPY (a peptide derived from DEPDC1) [SEQ ID NO: 91] | potent IFN-gamma production
LTFEYYELF (a peptide derived from DEPDC1) [SEQ ID NO: 88] | potent IFN-gamma production
LFAPLPTYSY (a peptide derived from DEPDC1) [SEQ ID NO: 96] | potent IFN-gamma production
EVWRYVILIY (a peptide derived from DEPDC1) [SEQ ID NO: 99] | potent IFN-gamma production
LSENSLLPA (a peptide derived from DEPDC1) [SEQ ID NO: 84] | potent IFN-gamma production
AGEAVDWLY (a peptide derived from DEPDC1) [SEQ ID NO: 82] | potent IFN-gamma production
